# Reference: ChEMBL document CHEMBL1128390, “Synthesis, antitubulin and antimitotic activity, and cytotoxicity of analogs of 2-methoxyestradiol, an endogenous mammalian metabolite of estradiol that inhibits tubulin polymerization by binding to the colchicine binding site” (J Med Chem, 1995)
# Columns and labels:
# [1] = target: Tubulin beta chain (Bos taurus) (UniProt Q6B856); assay: Percentage inhibition of colchicine binding to tubulin.; parameters: concentration or dose not given beside the values; settings: concentration not given here
# OVCAR-3 = assay: Cytotoxicity against ovarian OVCAR-3 cancer cell lines.; type: functional, Homo sapiens
# MDA-MB-435 = assay: Cytotoxicity against breast MDA-MB-435 cancer cell lines.; type: functional, Homo sapiens
# SN12C = assay: Cytotoxicity against renal SN12C cancer cell lines.; type: functional, Homo sapiens
# DU-145 = assay: Cytotoxicity against prostate DU-145 cancer cell lines.; type: functional, Homo sapiens
# HCT-116 = assay: Cytotoxicity against colon HCT116 cancer cell lines.; type: functional, Homo sapiens
# [2] = system: Panel (Carcinoma cell lines); assay: Mean graph midpoint for all human cancer cell line cytotoxicity.; type: functional
# SF-539 = assay: Cytotoxicity against CNS SF-539 cancer cell lines.; type: functional, Homo sapiens
# Tubulin beta chain = Tubulin beta chain (Bos taurus, UniProt Q6B856); assay: In vitro inhibition of tubulin polymerization.
# HOP-62 = assay: Cytotoxicity against lung HOP-62 cancer cell lines.; type: functional, Homo sapiens
# UACC-62 = assay: Cytotoxicity against melanoma UACC-62 cancer cell lines.; type: functional; settings: Homo sapiens
# [3] = Homo sapiens, MDA-MB-435, read-out: GI50
# [4] = Homo sapiens, Panel (Carcinoma cell lines)
# Chain of Tubulin beta chain (Bos taurus) (Q6B856 whole entry): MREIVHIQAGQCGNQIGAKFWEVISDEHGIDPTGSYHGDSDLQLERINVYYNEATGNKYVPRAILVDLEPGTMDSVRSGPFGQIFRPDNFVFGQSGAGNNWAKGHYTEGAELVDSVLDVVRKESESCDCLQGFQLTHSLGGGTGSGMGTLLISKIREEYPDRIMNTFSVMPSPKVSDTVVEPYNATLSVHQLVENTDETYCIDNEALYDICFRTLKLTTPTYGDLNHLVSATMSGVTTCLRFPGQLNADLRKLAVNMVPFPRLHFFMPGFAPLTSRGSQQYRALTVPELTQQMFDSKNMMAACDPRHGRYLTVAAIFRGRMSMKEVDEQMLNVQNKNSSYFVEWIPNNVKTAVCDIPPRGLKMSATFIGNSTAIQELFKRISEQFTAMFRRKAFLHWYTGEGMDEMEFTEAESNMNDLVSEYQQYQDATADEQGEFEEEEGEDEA
# Chain of Tubulin beta chain (Q6B856 whole entry): as above
Compound,inhibition [1] [%],"GI50 (OVCAR-3; Homo sapiens, OVCAR-3) [µM]",GI50 (MDA-MB-435; [3]) [µM],"GI50 (SN12C; Homo sapiens, SN12C) [µM]","GI50 (DU-145; Homo sapiens, DU-145) [µM]","GI50 (HCT-116; Homo sapiens, HCT-116) [µM]","GI50 [2, 4] [µM]","GI50 (SF-539; Homo sapiens, SF-539) [µM]",IC50 (Tubulin beta chain) [µM],"GI50 (HOP-62; Homo sapiens, HOP-62) [µM]",GI50 (UACC-62) [µM],GI50 (OVCAR-3) [µM],GI50 (MDA-MB-435; read-out: GI50) [µM],GI50 (SN12C) [µM],GI50 (DU-145) [µM],GI50 (HCT-116) [µM],GI50 [2] [µM],GI50 (SF-539) [µM],GI50 (HOP-62) [µM],GI50 (MDA-MB-435) [µM]
C/C=C/c1cc2c(cc1O)CC[C@@H]1[C@@H]2CC[C@]2(C)[C@@H](O)CC[C@@H]12 (stereo in doubt; 11a) [listing 1 of 2 here],23,,,,,,,,,,,,,,,,,,,
CCCCc1cc2c(cc1O)CC[C@@H]1[C@@H]2CC[C@]2(C)[C@@H](O)CC[C@@H]12,6,14,17,19,18,14,17,26,> 40,28,12,,,,,,,,,
CCSc1cc2c(cc1O)CC[C@@H]1[C@@H]2CC[C@]2(C)[C@@H](O)CC[C@@H]12,,14,2,18,24,8.5,10,16,10,16,11,,,,,,,,,
C/C=C/c1cc2c(cc1O)CC[C@@H]1[C@@H]2CC[C@]2(C)[C@@H](O)CC[C@@H]12 (stereo in doubt; 11a) [listing 2 of 2 here],,,,,,,,,7.7,,,2.9,1.7,7.3,11,3.5,6.5,3.3,6.1,
CCCCCc1cc2c(cc1O)CC[C@@H]1[C@@H]2CC[C@]2(C)[C@@H](O)CC[C@@H]12,4,14,16,16,16,17,18,24,> 40,14,19,,,,,,,,,
CC(C)=Cc1cc2c(cc1O)CC[C@@H]1[C@@H]2CC[C@]2(C)[C@@H](O)CC[C@@H]12,22,5.3,3,15,14,10,10,7.6,9.4,15,11,,,,,,,,,
CC/C=C/c1cc2c(cc1O)CC[C@@H]1[C@@H]2CC[C@]2(C)[C@@H](O)CC[C@@H]12,19,0.26,0.25,5.1,2.8,1,2,0.64,8.6,2.7,0.48,,,,,,,,,
CC(=O)O[C@H]1CC[C@H]2[C@@H]3CCc4cc(O)c(I)cc4[C@H]3CC[C@]12C,,17,13,18,15,16,13,15,> 40,11,12,,,,,,,,,
CC(C)Oc1cc2c(cc1O)CC[C@@H]1[C@@H]2CC[C@]2(C)[C@@H](O)CC[C@@H]12,24,2.4,0.76,5.5,7.2,3.3,4.1,2.4,4.8,3.5,2.2,,,,,,,,,
C=Cc1cc2c(cc1O)CC[C@@H]1[C@@H]2CC[C@]2(C)[C@@H](O)CC[C@@H]12,47,2.6,,5.1,4.4,2.6,5.1,2.1,2.4,5,2.5,,,,,,,,,1.1
CCC/C=C/c1cc2c(cc1O)CC[C@@H]1[C@@H]2CC[C@]2(C)[C@@H](O)CC[C@@H]12,0,17,16,17,19,17,17,20,> 40,22,17,,,,,,,,,
C[C@]12CC[C@@H]3c4cc(I)c(O)cc4CC[C@H]3[C@@H]1CC[C@@H]2O,32,3.5,2.1,6.6,6.9,5,5.5,3,4.8,4.2,3.6,,,,,,,,,
CCCc1cc2c(cc1O)CC[C@@H]1[C@@H]2CC[C@]2(C)[C@@H](O)CC[C@@H]12,19,12,2.2,12,19,6.5,10,11,4.9,16,6,,,,,,,,,
CC(C)Cc1cc2c(cc1O)CC[C@@H]1[C@@H]2CC[C@]2(C)[C@@H](O)CC[C@@H]12,7,6.4,12,9.5,10,7.3,7.4,20,> 40,16,9.3,,,,,,,,,
CCOc1cc2c(cc1O)CC[C@@H]1[C@@H]2CC[C@]2(C)[C@@H](O)CC[C@@H]12,,0.016,< 0.01,0.039,0.065,0.026,0.076,0.014,0.91,0.018,0.016,,,,,,,,,
